Results on seven compounds are retold here after patent US20160175412A1, “PREVENTION OF TYPE 1 DIABETES BY TREG VACCINATION WITH AN INSULIN MIMETOPE” (DANA-FARBER CANCER INSTITUTE, INC., priority 2010, published 2016).

Where no end group is shown, it is not given here.

In test [1] the test system is HA(107-119) TCR transgenic Foxp3GFP-reporter T cells. The experiment in a line: in vivo HA-specific Treg conversion, congenic adoptive-transfer system. Further details: species or system mouse. The following applies: injection of mTOR-inhibitor. On the procedure:
(b) In vivo conversion of naïve CD4+CD25-T cells expressing a transgenic TCR of interest into Treg cells using a congenic transfer system. HA(107-119)TCR transgenic CD4+/Foxp3-/GFP Thy1.1+ cells are transferred iv into a host such as a Balb/c thy1.2+ mouse. A to single dose of a covalent conjugate of […] fusion antibody is administered ip. Analysis of Foxp3 expression in CD4-enriched Thy1.1+ spleenocytes and lymph nodes is conducted after 14 days flow cytometrically.
For the exploitation of antigen-specific Treg induction to interfere with unwanted immunity as diabetes the inventors performed optimization studies in order to achieve stable de novo differentiation of naive T cells into Tregs in sufficient numbers. Therefore we aimed at using combinations of compounds that enhance conversion, selectively expand the generated Tregs and allow for maintenance of the Treg phenotype. […] To induce rapid expansion of these Tregs the inventors injected the mice with IL-2 mixed with an optimized amount of a particular IL-2 monoclonal antibody (IL-2/IL-2 ab complexes) for a short period of 3 days at the end of the conversion period. […] Moreover, these Tregs were stable and persisted over a period of 4 months, which is an important feature as it allows for prospective induction to suppress unwanted immune responses.

A further test deals with T1, IAu (Mus musculus, UniProt P06344+P14438).
T1 sequence (P14438 1-227): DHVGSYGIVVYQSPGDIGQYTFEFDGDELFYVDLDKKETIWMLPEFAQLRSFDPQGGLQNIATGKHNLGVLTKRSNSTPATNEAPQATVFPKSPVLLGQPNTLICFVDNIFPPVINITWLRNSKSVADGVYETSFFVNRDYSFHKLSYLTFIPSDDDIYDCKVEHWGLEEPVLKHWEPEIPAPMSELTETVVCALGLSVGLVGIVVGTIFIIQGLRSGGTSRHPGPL
T1 sequence (P06344 28-263): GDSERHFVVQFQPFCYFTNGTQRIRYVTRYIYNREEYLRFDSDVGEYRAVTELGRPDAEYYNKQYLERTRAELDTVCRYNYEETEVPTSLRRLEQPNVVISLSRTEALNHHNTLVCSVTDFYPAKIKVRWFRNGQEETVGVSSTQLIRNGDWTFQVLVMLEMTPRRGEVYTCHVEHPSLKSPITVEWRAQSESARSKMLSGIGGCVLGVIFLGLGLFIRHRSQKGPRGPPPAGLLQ
To be noted: presented by IAu; cited from earlier work.

For test [2], the system named is IAg^7. Put plainly: peptide binding to MHC class II IAg7. The following applies: MHC class II IAg^7. Further details: species or system mouse. From the text:
The natural Insulin B:9-23 peptide is known to be associated with Type I diabetes. This peptide binds with poor affinity to IAg^7 in multiple binding registers.
Chromogranin A was recently identified as the antigenic source of the highly pathogenic BDC2.5 T cell clone associated with Type I diabetes. WE14 is naturally processed from Chromogranin A by a furin-like protease. […] Studies have shown that this epitope only partially fills the peptide binding groove.
(§1) The inventors performed similar protocols of antigen-specific Treg conversion studies to prevent the development of spontaneous diabetes in NOD mice by injecting DEC205 fusion antibodies that contain the beta chain of insulin. […] The inventors hypothesized that weak epitopes may fail to induce efficient Treg conversion, and we initiated studies using Insulin B:9-23 TCR transgenic mice and identified in T cell proliferation assays insulin mimetopes that stimulate better than the Insulin B:9-23 peptide itself because of an increased binding capacity to MHC class II IAg^7, compared to the aforementioned Insulin B:9-23 peptide. In fact such mimetopes achieved better conversion of naive T cells expressing the transgenic TCR. […]

The subject of another test is NOD InsB:9-23 Tg T cells. Put plainly: thymidine incorporation T cell proliferation assay. The following applies: Insulin B:9-23 TCR transgenic T cells. Format: cell-based, mouse. From the text:
A key feature of the adaptive immune response is the ability of antigen-specific T cells to rapidly proliferate following antigenic-stimulation. Assays to assess the proliferative activity of antigen-specific T cells are a core tool to allow for evaluation of TCR- and MHC-binding properties based on the growth rate of the T cell populations after stimulation with a defined amount of antigen. A historically established assay is the detection of tritiated thymidine ^3H uptake. Therefore CD4+ T-cells from Rag def. NOD mice expressing a transgenic TCR for the a peptide of interest (e.g., Insulin B 9:23 peptide) are isolated by the use of a magnetic bead separation approach. Purified CD11^+DCs from normal NOD mice are used as antigen-presenting cells and irradiated. To induce proliferation of antigen-specific CD4^+ T cells, co-cultures are set up with naïve Insulin-specific CD4^+ T cells in 200 μl RPMI1640 medium supplemented with 10% (vol/vol) FCS in 96-well round-bottomed plates. Soluble peptides (e.g., natural InsulinB9:23 peptide) or mimetopes (e.g., Insulin mimetopes) are added to the cultures in various concentration (10 μg/ml to 0.01 μg/ml). Analysis of proliferation of antigen-specific T cells is performed by incorporation of ^3H-thymidine added for the last 12 hours of a 70 hours culture period followed by scintillation counting. […]
A general note: Incorporation of labelled thymidine or its analogues reports DNA synthesis.

The test system of test [3] is T cells with a specific transgenic TCR for the K^d54-68 peptide. To be noted: cited from earlier work.
The subject of test [4] is IAg^7. The following applies: cited from earlier work.
A further test relates to BDC2.5 T cells. To be noted: cited from earlier work.
In a further test the test system is NOD mice. The experiment in a line: prevention of spontaneous diabetes in NOD mice. Format: in vivo, mouse. To be noted: injection into young NOD mice.
Text: The inventors have been successful in inducing HY-specific Treg from naIve T cells in wt female B6 mice that were infused with HY-peptide and visualized with HY-peptide, class II tetramers (1). However, a similar approach to prevent diabetes in NOD mice by injecting insulin B:9-23 peptide into young NOD mice failed.
as §1, with “TCR. The inventors then studied the impact of these insulin-derived mimetopes in young NOD mice on diabetes development via subimmunogenic peptide delivery using either newly designed DEC205 peptide fusion antibodies (see description below) or peptide-infusing mini-osmotic pumps.” for “TCR.”

For `CO[C@H]1C[C@@H]2CC[C@@H](C)[C@@](O)(O2)C(=O)C(=O)N2CCCC[C@H]2C(=O)O[C@H]([C@H](C)C[C@@H]2CC[C@@H](OCCO)[C@H](OC)C2)CC(=O)[C@H](C)/C=C(\C)[C@@H](O)[C@@H](OC)C(=O)[C@H](C)C[C@H](C)/C=C/C=C/C=C/1C` [Everolimus], the “frequency of newly generated HA-specific Foxp3+ Tregs” value in test [1] was “substantially increases”. As for “Act-11 MBP: SEQ ID NO: 8, Ac-ASQKRPSQRHG; acetylated N-terminal myelin basic protein epitope”, the epitope strength entry with IAu is reported as “weak epitope”. Turning to “InsMim3 peptide mimetope: SEQ ID NO: 2, VEALYLVCGEEG; insulin mimetope, p9 Arginine exchanged to Glutamic acid (InsMim3 peptide mimetope)”, the “MHC binding compared with natural Insulin B:9-23 peptide” value in the test on IAg^7 [2] was “enhanced MHC binding”. Moreover, in the test with NOD InsB:9-23 Tg T cells, the “stimulation of T cells compared with natural Insulin B:9-23 peptide” value is reported as “better stimulation of T cells”. For “K^d54-68 peptide: SEQ ID NO: 6, QEGPEYWEEQTQRAK; MHC class I derived processed peptide presented by IAb (Kd 54-68 peptide)”, the agonist strength result in test [3] (MHC-derived transplantation antigen) is reported as “weak agonist”. For the same compound, the “proliferation of specific TCR transgenic T cells” value in test [3] (dendritic cells pulsed with peptide) was “not able to stimulate the proliferation”. “WE14: SEQ ID NO: 4, WSRMDQLAKELTAE; naturally processed from Chromogranin A (WE14 peptide)”: the “binding to IAg^7 (MHC-binding)” value with IAg^7 [4] is listed as “weakly”. In addition, the “stimulation of BDC2.5 T cells” value in the test with BDC2.5 T cells is “poor stimulation”. As to “natural Insulin B:9-23 peptide: SEQ ID NO: 1, SHLVEALYLVCGERG; natural peptide associated with Type I diabetes (Insulin B peptide)”, the “binding to IAg^7 (MHC-binding)” value in the test on IAg^7 [4] is “poor affinity”. Besides, the prevention of diabetes entry in the test on NOD mice is listed as “failed”. Take “pS3 peptide: SEQ ID NO: 5, RLGLWVRME; strong stimulating mimetope of WE14 (pS3 peptide mimetope)”: the “binding to IAg^7 (MHC-binding)” value with IAg^7 [4] is “improved MHC-binding”. Also, the “stimulation of BDC2.5 T cells” value with BDC2.5 T cells is reported as “strong stimulating mimetope”.
